Results on 18 molecules are retold here after US20250152585A1, “PHARMACEUTICAL COMPOUND” (Duke Street Bio Limited, priority 2022, published 2025).

Read-outs that look alike come from different tables or passages of the source.

In assay [1] the target is T1, full length N-terminally FLAG-tagged PARP1 (Homo sapiens, UniProt P09874). In words: PARP1 probe displacement HTRF assay. As to conditions: for Kd: binned Kd; for Selectivity: PARP1 over PARP2, ratio Kd (PARP2)/Kd (PARP1).
Assay [2] deals with T2, N-terminally FLAG-tagged PARP2 (amino acids 1-583) (Homo sapiens, UniProt Q9UGN5).
T2 construct: N-terminally FLAG-tagged PARP2 (amino acids 1-583)
T2 sequence (Q9UGN5 whole entry, the tested form may be a part): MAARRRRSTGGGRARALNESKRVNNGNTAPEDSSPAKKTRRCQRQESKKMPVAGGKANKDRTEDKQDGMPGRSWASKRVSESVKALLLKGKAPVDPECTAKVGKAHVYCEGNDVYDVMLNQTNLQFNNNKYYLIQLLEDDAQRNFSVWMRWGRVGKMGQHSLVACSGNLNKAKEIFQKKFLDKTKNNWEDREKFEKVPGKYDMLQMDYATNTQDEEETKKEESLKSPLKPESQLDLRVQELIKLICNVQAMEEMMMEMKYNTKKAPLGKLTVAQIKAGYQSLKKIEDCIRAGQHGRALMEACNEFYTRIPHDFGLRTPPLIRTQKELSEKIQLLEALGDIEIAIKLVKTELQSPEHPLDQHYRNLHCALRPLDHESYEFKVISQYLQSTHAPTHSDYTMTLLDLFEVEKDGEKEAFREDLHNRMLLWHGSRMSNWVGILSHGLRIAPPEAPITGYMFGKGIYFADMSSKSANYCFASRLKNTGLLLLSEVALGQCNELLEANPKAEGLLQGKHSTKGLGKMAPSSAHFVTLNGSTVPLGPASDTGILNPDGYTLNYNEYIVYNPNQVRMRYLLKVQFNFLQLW
In words: PARP2 probe displacement HTRF assay. The assay is classed as binding. Particulars: binned Kd. Here is the method:
Data analysis was performed identical as for PARP1.

Another assay addresses T3, PARP2 (Homo sapiens, UniProt Q9UGN5).
T3 construct: host or cells: HEK293
In words: NanoBRET cellular target occupancy assay, PARP2. In kind it is cell-based. As to conditions: HEK293 cells transiently transfected with PARP2-NanoLuc fusion; tracer 2 nM; 2 hours at 37° C.; Kd by Cheng-Prussoff. The text has this:
NanoBRET Cellular Target Occupancy Assay
On the technique in general: BRET reads energy transfer from a luciferase to a nearby fluorophore.

Assay [3] deals with T1, full length N-terminally FLAG-tagged PARP1. The experiment in a line: PARP1 biochemical DELFIA assay (auto-PARylation). The arrangement: recombinant full length human N-terminally FLAG-tagged PARP1.
In a further assay the target is T4, PARP1 (Homo sapiens, UniProt P09874).
T4 construct: host or cells: HEK293
T4 sequence (P09874 whole entry): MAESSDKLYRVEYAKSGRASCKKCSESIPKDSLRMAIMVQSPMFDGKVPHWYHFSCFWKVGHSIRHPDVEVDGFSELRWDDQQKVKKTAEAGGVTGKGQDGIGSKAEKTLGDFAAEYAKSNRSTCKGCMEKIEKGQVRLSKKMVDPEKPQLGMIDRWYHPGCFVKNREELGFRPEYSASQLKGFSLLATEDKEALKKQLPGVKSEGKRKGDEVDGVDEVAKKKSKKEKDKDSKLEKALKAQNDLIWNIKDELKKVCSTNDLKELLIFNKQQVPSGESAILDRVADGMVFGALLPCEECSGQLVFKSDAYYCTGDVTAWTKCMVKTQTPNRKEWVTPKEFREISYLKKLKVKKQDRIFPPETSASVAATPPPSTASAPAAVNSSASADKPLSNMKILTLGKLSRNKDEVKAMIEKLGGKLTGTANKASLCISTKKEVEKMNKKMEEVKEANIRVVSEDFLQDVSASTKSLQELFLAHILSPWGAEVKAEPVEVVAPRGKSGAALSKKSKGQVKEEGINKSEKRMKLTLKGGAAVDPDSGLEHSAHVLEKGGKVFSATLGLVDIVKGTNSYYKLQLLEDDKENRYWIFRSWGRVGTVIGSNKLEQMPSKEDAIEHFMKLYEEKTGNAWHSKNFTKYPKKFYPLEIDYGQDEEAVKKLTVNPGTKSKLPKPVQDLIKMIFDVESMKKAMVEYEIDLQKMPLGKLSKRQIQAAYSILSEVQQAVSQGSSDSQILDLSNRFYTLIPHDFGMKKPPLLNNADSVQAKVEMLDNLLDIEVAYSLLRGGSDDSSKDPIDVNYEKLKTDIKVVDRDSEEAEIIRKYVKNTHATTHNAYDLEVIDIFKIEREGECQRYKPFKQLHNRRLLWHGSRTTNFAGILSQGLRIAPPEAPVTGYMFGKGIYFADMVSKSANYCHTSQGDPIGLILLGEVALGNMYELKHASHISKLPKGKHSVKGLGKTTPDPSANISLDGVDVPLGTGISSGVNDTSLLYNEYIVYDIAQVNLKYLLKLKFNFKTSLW
In words: NanoBRET cellular target occupancy assay, PARP1. In kind it is cell-based. Particulars: for Kd: HEK293 cells transiently transfected with PARP1-NanoLuc fusion, tracer 11 nM, 2 hours at 37° C., Kd by Cheng-Prussoff; for Selectivity: NanoBRET, PARP1 over PARP2, Kd (PARP2)/Kd (PARP1).

Where [4] appears, read: PARP1 HTRF, probe displacement HTRF.
[5] abbreviates: binned IC50, biochemical auto-PARylation assay.
Setting [6] is: read-out: PARP1 HTRF, probe displacement HTRF.
Where [7] appears, read: read-out: PARP1 HTRF, PARP1 probe displacement HTRF.
Setting [8] is: binned IC50, PARP1 biochemical DELFIA assay.

T3 sequence (Q9UGN5 whole entry): as the sequence (Q9UGN5 whole entry, the tested form may be a part) above
T1 sequence (P09874 whole entry, the tested form may be a part): as the sequence (P09874 whole entry) above

For `CNC(=O)c1ccc(N2CCC(N3CC4(c5nc6cccc(F)c6c(=O)[nH]5)CC3C4)CC2)c(F)n1` [Compound 228], the Kd in assay [1] (setting [4]) was less than 10 nM; in assay [2] (probe displacement HTRF), 1000 to 10000 nM; on PARP2, more than 10000 nM; on PARP1 it was less than 10 nM. Further, the Selectivity result (in assay [1] (probe displacement HTRF); on PARP1) was “+++ (+++ indicate a value of at least 100)” each time. Besides, the IC50 – broadly, the midpoint of a concentration-inhibition curve – in assay [3] (setting [5]) was less than 10 nM.
As to `CCc1ccc(C2CCN(C3CCN(c4ccc(C(=O)NCCF)nc4F)CC3)C2)[nH]c1=O` (single isomer, unassigned) [Compound 322b], the Selectivity entry (in assay [1] (probe displacement HTRF); on PARP1) was “+++ (+++ indicate a value of at least 100)” throughout. For the same molecule, the Kd in assay [1] (setting [6]) is less than 10 nM; in assay [2] (probe displacement HTRF) it was 100 to 1000 nM; on PARP2 it was 100 to 1000 nM; at PARP1, less than 10 nM. Moreover, the IC50 in assay [3] (setting [5]) was less than 10 nM.
Regarding `CNC(=O)c1ccc(N2CCC(N3CC4(c5nc6c(c(=O)[nH]5)CCCN6)CC3C4)CC2)cn1` [Compound 312], the Kd was less than 10 nM in assay [1] (setting [4]), 100 to 1000 nM in assay [2] (probe displacement HTRF), 1000 to 10000 nM on PARP2 and 100 to 1000 nM at PARP1. For the same molecule, the Selectivity entry in assay [1] (probe displacement HTRF) was “+++ (+++ indicate a value of at least 100)”; at PARP1 it was “++ (++ indicates a value of 50 to less than 100)”. The IC50 in assay [3] (setting [5]) was less than 10 nM.
In the case of `CCc1cnc(C23CC(C2)N(C2CCN(c4ccc(C(=O)NC)nc4F)CC2)C3)[nH]c1=O` [Compound 300], the Kd was less than 10 nM in assay [1] (setting [4]), 1000 to 10000 nM in assay [2] (probe displacement HTRF), more than 10000 nM on PARP2 and less than 10 nM at PARP1. The Selectivity entry (in assay [1] (probe displacement HTRF); on PARP1) was “+++ (+++ indicate a value of at least 100)” throughout. Further, the IC50 in assay [3] (setting [5]) is less than 10 nM.
For the molecule `CNC(=O)c1ccc(N2CCC(N3CCC(c4cc5ccc(F)cc5c(=O)[nH]4)C3)CC2)c(Cl)n1` (single isomer, unassigned) [Compound 223b], the Selectivity result (in assay [1] (probe displacement HTRF); at PARP1) was “+++ (+++ indicate a value of at least 100)” each time. Further, the Kd is less than 10 nM in assay [1] (setting [6]), 100 to 1000 nM in assay [2] (probe displacement HTRF), 100 to 1000 nM at PARP2 and less than 10 nM at PARP1. Moreover, the half-maximal inhibitory concentration (IC50) in assay [3] (setting [5]) is less than 10 nM.
`CNC(=O)c1ccc(N2CCC(N3CCC(c4cc5c(F)ccc(F)c5c(=O)[nH]4)C3)CC2)c(F)n1` (single isomer, unassigned) [Compound 323a]: the Selectivity result (in assay [1] (probe displacement HTRF); on PARP1) was “+++ (+++ indicate a value of at least 100)” each time. Moreover, the Kd is less than 10 nM in assay [1] (setting [6]), more than 10000 nM in assay [2] (probe displacement HTRF), more than 10000 nM at PARP2 and less than 10 nM on PARP1. The IC50 in assay [3] (setting [5]) is less than 10 nM.
`N#Cc1ccc(N2CCC(N3CCC(c4cc5cccc(F)c5c(=O)[nH]4)C3)CC2)cc1` (single isomer, unassigned) [Compound 314b]: the Selectivity result (in assay [1] (probe displacement HTRF); on PARP1) was “+++ (+++ indicate a value of at least 100)” throughout. Further, the Kd in assay [1] (setting [6]) was less than 10 nM; in assay [2] (probe displacement HTRF), 100 to 1000 nM; on PARP2, 100 to 1000 nM; on PARP1, less than 10 nM. The IC50 in assay [3] (setting [5]) was less than 10 nM.
As for `CNC(=O)c1ccc(N2CCC(N3CCC(c4nc5ccc(F)cc5c(=O)[nH]4)C3)CC2)cn1` (single isomer, unassigned) [Compound 64b], the Selectivity entry (in assay [1] (probe displacement HTRF); on PARP1) was “+++ (+++ indicate a value of at least 100)” throughout. For the same molecule, the Kd in assay [1] (setting [7]) is less than 10 nM; in assay [2] (PARP2 probe displacement HTRF) it was 100 to 1000 nM; on PARP2, 100 to 1000 nM; on PARP1, less than 10 nM. In addition, the IC50 in assay [3] (setting [8]) was less than 10 nM.
For the molecule `CNC(=O)c1ccc(N2CCC(N3CCC(c4cc5c(c(=O)[nH]4)CCCC5)C3)CC2)c(F)n1` (single isomer, unassigned) [Compound 337a, 6-fluoro-N-methyl-5-(4-(3-(1-oxo-1,2,5,6,7,8-hexahydroisoquinolin-3-yl)pyrrolidin-1-yl)piperidin-1-yl)picolinamide], the Kd in assay [1] (setting [4]) is less than 10 nM; in assay [2] (probe displacement HTRF), 100 to 1000 nM; on PARP2 it was 1000 to 10000 nM; at PARP1 it was less than 10 nM. The Selectivity result (in assay [1] (probe displacement HTRF); on PARP1) was “+++ (+++ indicate a value of at least 100)” in each case. Further, in assay [3] (setting [5]), the concentration for half-maximal inhibition (IC50) is less than 10 nM.
With `CCc1ccc(C2CCN(C3CCN(c4ccc(C(=O)NC)nc4)CC3)C2)[nH]c1=O` (single isomer, unassigned) [Compound 72b], the Selectivity entry (in assay [1] (probe displacement HTRF); at PARP1) was “+++ (+++ indicate a value of at least 100)” in each case. Besides, the Kd in assay [1] (setting [7]) is less than 10 nM; in assay [2] (PARP2 probe displacement HTRF) it was 100 to 1000 nM; on PARP2, 1000 to 10000 nM; on PARP1 it was less than 10 nM. The IC50 in assay [3] (setting [8]) is less than 10 nM.
`CNC(=O)c1ccc(N2CCC(N3CCC(c4cc5cccc(F)c5c(=O)[nH]4)C3)CC2)cn1` (single isomer, unassigned) [Compound 136b, 5-{4-[3-(8-fluoro-1-oxo-2H-isoquinolin-3-yl)pyrrolidin-1-yl]piperidin-1-yl}-N-methylpyridine-2-carboxamide]: the Selectivity result (in assay [1] (probe displacement HTRF); at PARP1) was “+++ (+++ indicate a value of at least 100)” throughout. Moreover, the Kd was less than 10 nM in assay [1] (setting [7]), 10 to 100 nM in assay [2] (PARP2 probe displacement HTRF), 100 to 1000 nM at PARP2 and less than 10 nM at PARP1. The IC50 in assay [3] (setting [8]) was less than 10 nM.
Take `CNC(=O)c1ccc(N2CCC(N3CC4(c5nc6c(c(=O)[nH]5)CCC6)CC3C4)CC2)c(F)n1` [Compound 302]: the Kd was less than 10 nM in assay [1] (setting [4]), more than 10000 nM in assay [2] (probe displacement HTRF), more than 10000 nM on PARP2 and 10 to 100 nM at PARP1. Moreover, the Selectivity entry (in assay [1] (probe displacement HTRF); on PARP1) was “+++ (+++ indicate a value of at least 100)” in each case. Besides, in assay [3] (setting [5]), the concentration for half-maximal inhibition (IC50) was less than 10 nM.
For the molecule `CNC(=O)c1ccc(N2CCC(N3CCC(c4nc5ccc(Cl)cc5c(=O)[nH]4)C3)CC2)cn1` (single isomer, unassigned) [Compound 68a], the Selectivity entry (in assay [1] (probe displacement HTRF); at PARP1) was “+++ (+++ indicate a value of at least 100)” each time. Also, the Kd in assay [1] (setting [7]) was less than 10 nM; in assay [2] (PARP2 probe displacement HTRF), 100 to 1000 nM; at PARP2 it was 1000 to 10000 nM; on PARP1, less than 10 nM. In assay [3] (setting [8]), the IC50 is less than 10 nM.
Regarding `CCc1ccc(C2CCN(C3CCN(c4ccc(C(=O)NC5CC5)nc4F)CC3)C2)[nH]c1=O` (single isomer, unassigned) [Compound 353a], the Selectivity result (in assay [1] (probe displacement HTRF); on PARP1) was “+++ (+++ indicate a value of at least 100)” each time. Besides, the Kd is less than 10 nM in assay [1] (setting [6]), 100 to 1000 nM in assay [2] (probe displacement HTRF), 100 to 1000 nM at PARP2 and less than 10 nM on PARP1. Also, in assay [3] (setting [5]), the IC50 was less than 10 nM.
As for `CNC(=O)c1ccc(N2CCC(N3CCC(c4cc5ccc(F)cc5c(=O)[nH]4)C3)CC2)c(Cl)n1` (racemic) [Compound 175rac], the Selectivity entry (in assay [1] (probe displacement HTRF); on PARP1) was “+++ (+++ indicate a value of at least 100)” throughout. The Kd in assay [1] (setting [7]) was less than 10 nM; in assay [2] (PARP2 probe displacement HTRF), 100 to 1000 nM; at PARP2 it was 1000 to 10000 nM; on PARP1, less than 10 nM. The IC50 in assay [3] (setting [8]) is less than 10 nM.
As to `CNC(=O)c1ccc(N2CCC(N3CCC(c4cc5ccc(F)cc5c(=O)[nH]4)C3)CC2)c(C)n1` (single isomer, unassigned) [Compound 196a], the Selectivity entry (in assay [1] (probe displacement HTRF); at PARP1) was “+++ (+++ indicate a value of at least 100)” in each case. Besides, the Kd in assay [1] (setting [7]) was less than 10 nM; in assay [2] (PARP2 probe displacement HTRF), 100 to 1000 nM; at PARP2, 100 to 1000 nM; on PARP1, less than 10 nM. Further, the IC50 in assay [3] (setting [8]) is less than 10 nM.
`CNC(=O)c1ccc(N2CCC(N3CC4(c5nc6c(c(=O)[nH]5)CCCN6C)CC3C4)CC2)cn1` [Compound 330]: the Kd in assay [1] (setting [4]) was less than 10 nM; in assay [2] (probe displacement HTRF) it was 10 to 100 nM; at PARP2, 100 to 1000 nM; at PARP1, 10 to 100 nM. The Selectivity entry (in assay [1] (probe displacement HTRF); on PARP1) was “+ (+ indicates a value of 10 to less than 50)” each time. Besides, the IC50 in assay [3] (setting [5]) is less than 10 nM.
As to `CNC(=O)c1ccc(N2CCC(N3CCC(c4[nH]c(=O)c5ccccc5c4F)C3)CC2)cn1` (racemic) [Compound 258rac], the Selectivity result (in assay [1] (probe displacement HTRF); at PARP1) was “+++ (+++ indicate a value of at least 100)” in each case. The Kd was less than 10 nM in assay [1] (setting [6]), 100 to 1000 nM in assay [2] (probe displacement HTRF), 100 to 1000 nM on PARP2 and less than 10 nM at PARP1. Besides, the concentration for half-maximal inhibition (IC50) in assay [3] (setting [5]) is less than 10 nM.
